Data on 21 compounds can be found in patent publication US12630510B2, “EP2 antagonist” (ONO PHARMACEUTICAL CO., LTD., priority 2019, dated 2026).

Molecules are shown by their SMILES.

For one experiment, the target named is T1, human EP2 receptor (Homo sapiens, UniProt P43116).
T1 construct: expressed in transfected cells; host or cells: CHO cells
T1 sequence (P43116 whole entry): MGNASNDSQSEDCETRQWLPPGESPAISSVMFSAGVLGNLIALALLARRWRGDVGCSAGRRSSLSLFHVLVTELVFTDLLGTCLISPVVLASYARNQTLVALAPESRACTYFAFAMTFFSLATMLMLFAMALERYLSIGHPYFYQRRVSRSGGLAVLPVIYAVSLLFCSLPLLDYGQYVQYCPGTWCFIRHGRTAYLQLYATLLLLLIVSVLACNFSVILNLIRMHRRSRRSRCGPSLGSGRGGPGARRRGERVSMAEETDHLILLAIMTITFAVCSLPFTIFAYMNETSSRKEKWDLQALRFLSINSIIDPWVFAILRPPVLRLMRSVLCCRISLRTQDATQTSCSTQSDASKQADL
Kind of experiment: Experiment of measuring EP2 antagonistic activity using cells expressing prostanoid receptor (cAMP). The following applies: CHO cells expressing human EP2 receptor; PGE2 10 nmol/L; cAMP quantified after 1 hour at room temperature; read-out: EP2_IC50. In kind it is cell-based. As for the experimental part:
CHO cells on each of which a human EP2 receptor had been expressed were prepared in accordance with the method by Nishigaki et al, (FEBS Letters, vol. 364, pp. 339-341, 1995) and were then cryopreserved in CELLBANKER2 (Nippon Zenyaku Kogyo Co., Ltd.) at a concentration of 1.5×10^7 cells/mL/vial. The CHO cells thus prepared were used in the experiment. The cells were thawed, and were then suspended in an assay medium (D-PBS containing 1 mmol/L IBMX, 2 μmol/L Diclofenac) at a concentration of 5×10^5 cells/mL. PGE2 alone having a final concentration of 10 nmol/L or a solution (10 μL) containing the PGE2 and a test compound was added to the cell suspension (10 μL) to initiate the reaction. After the reaction was performed at room temperature for 1 hour, the amount of cAMP in the cells was quantified in accordance with the method described in cAMP Gs Dynamic kit (CISBIO).
The antagonistic activity (IC50 value) of a test compound was calculated as a percentage of suppression of the reaction at 10 nM, which was a concentration at which a submaximal cAMP production activity was observed when PGE2 alone was employed. In this manner, an IC50 value was determined.
As for `CC[C@H](C)n1c(CCOCc2ccccc2)ccc1C(=O)Nc1cc([C@H]2C[C@H]2C(=O)O)ccc1C(F)(F)F` [Example 8, (1R,2S)-2-{3-[({5-[2-(Benzyloxy)ethyl]-1-[(2S)-2-butanyl]-1H-pyrrol-2-yl}carbonyl)amino]-4-(trifluoromethyl)phenyl}cyclopropanecarboxylic acid], the IC50 is 0.4 nM.
In the case of `CC[C@H](C)n1c(CCOc2cc(F)nc(Cl)c2)ccc1C(=O)Nc1cc([C@H]2C[C@H]2C(=O)O)ccc1C(F)(F)F` [Example 10, (1R,2S)-2-[3-{[(1-[(2S)-2-Butanyl]-5-{2-[(2-chloro-6-fluoro-4-pyridinyl)oxy]ethyl}-1H-pyrrol-2-yl)carbonyl]amino}-4-(trifluoromethyl)phenyl]cyclopropanecarboxylic acid], the IC50 turned out to be 0.3 nM.
In the case of `Cc1cc(CCCc2ccccc2)cc(C)c1C(=O)Nc1cc([C@H]2C[C@H]2C(=O)O)ccc1C(F)(F)F` [Example 12, (1R,2S)-2-[3-{[2,6-Dimethyl-4-(3-phenylpropyl)benzoyl]amino}-4-(trifluoromethyl)phenyl]cyclopropanecarboxylic acid], the IC50 turned out to be 1 nM.
The same measure, in the same setting: to `Cc1cc(OCCc2ccc(F)cc2F)cc(C)c1C(=O)Nc1cc([C@H]2C[C@H]2C(=O)O)ccc1C(F)(F)F` [Example 13, (1R,2S)-2-[3-({4-[2-(2,4-Difluorophenyl)ethoxy]-2,6-dimethylbenzoyl}amino)-4-(trifluoromethyl)phenyl]cyclopropanecarboxylic acid] belongs 4.7 nM; to `Cc1cc(OCCc2ccccc2)cc(C)c1C(=O)Nc1cc([C@H]2C[C@H]2C(=O)O)c(Cl)cc1C(F)(F)F` [Example 15, (1R,2S)-2-[2-Chloro-5-{[2,6-dimethyl-4-(2-phenylethoxy)benzoyl]amino}-4-(trifluoromethyl)phenyl]cyclopropanecarboxylic acid], less than 0.3 nM; to `Cc1cc(OCCc2ccccc2)cc(C)c1C(=O)Nc1cc([C@H]2C[C@H]2C(=O)O)ccc1C(F)(F)F` [Example 18, (1R,2S)-2-[3-{[2,6-Dimethyl-4-(2-phenylethoxy)benzoyl]amino}-4-(trifluoromethyl)phenyl]cyclopropanecarboxylic acid], 0.9 nM.
The same measure, in the same setting: in the case of `Cc1cc(OCCc2ccccc2)cc(C)c1C(=O)Nc1cc([C@@H]2C[C@@H]2C(=O)O)ccc1C(F)(F)F` [Example 19, (1S,2R)-2-[3-{[2,6-Dimethyl-4-(2-phenylethoxy)benzoyl]amino}-4-(trifluoromethyl)phenyl]cyclopropanecarboxylic acid] it was 12 nM; in that of `Cc1cc(OCCc2cnn(C)c2)cc(C)c1C(=O)Nc1cc([C@H]2C[C@H]2C(=O)O)ccc1C(F)(F)F` [Example 20, (1R,2S)-2-[3-({2,6-Dimethyl-4-[2-(1-methyl-1H-pyrazol-4-yl)ethoxy]benzoyl}amino)-4-(trifluoromethyl)phenyl]cyclopropanecarboxylic acid], 28 nM; in that of `Cc1cc(OCCC2CC2)cc(C)c1C(=O)Nc1cc([C@H]2C[C@H]2C(=O)O)ccc1C(F)(F)F` [Example 20-1, (1R,2S)-2-[3-{[4-(2-Cyclopropylethoxy)-2,6-dimethylbenzoyl]amino}-4-(trifluoromethyl)phenyl]cyclopropanecarboxylic acid], 5 nM.
On the same count and under the same terms, in the case of `Cc1cc(Oc2cncc(Cl)n2)cc(C)c1C(=O)Nc1cc([C@H]2C[C@H]2C(=O)O)ccc1C(F)(F)F` [Example 21, (1R,2S)-2-[3-({4-[(6-Chloro-2-pyrazinyl)oxy]-2,6-dimethylbenzoyl}amino)-4-(trifluoromethyl)phenyl]cyclopropanecarboxylic acid] it was 8.1 nM; in that of `Cc1cc(OCCc2ccccc2)cc(C)c1C(=O)Nc1cc(CCC(=O)O)ccc1C(F)(F)F` [Example 24, 3-[3-f{[2,6-Dimethyl-4-(2-phenylethoxy)benzoyl]amino}-4-(trifluoromethyl)phenyl]propanoic acid], 5.2 nM; in that of `Cc1cc(OCCc2ccccc2)cc(C)c1C(=O)Nc1cc(C(C)CC(=O)O)ccc1C(F)(F)F` (stereo not shown) [Example 24-1, 3-[3-{[2,6-Dimethyl-4-(2-phenylethoxy)benzoyl]amino}-4-(trifluoromethyl)phenyl]butanoic acid], 20 nM.
As to `Cc1cc(OCCc2ccccc2)cc(C)c1C(=O)Nc1cc(CC(C)C(=O)O)ccc1C(F)(F)F` (stereo not shown) [Example 24-2, 3-[3-f{[2,6-Dimethyl-4-(2-phenylethoxy)benzoyl]amino}-4-(trifluoromethyl)phenyl]-2-methylpropanoic acid], the IC50 worked out at 12 nM.
As for `Cc1cc(OCCc2ccccc2)cc(C)c1C(=O)Nc1cc([C@H]2CC[C@H]2C(=O)O)ccc1C(F)(F)F` [Example 25, (1R,2S)-2-[3-{[2,6-Dimethyl-4-(2-phenylethoxy)benzoyl]amino}-4-(trifluoromethyl)phenyl]cyclobutanecarboxylic acid], the IC50 worked out at 2.2 nM.
Same read-out and setting: to `Cc1cc(OCCc2ccccc2)cc(C)c1C(=O)Nc1cc([C@H]2C[C@@]2(C)C(=O)O)ccc1C(F)(F)F` [Example 26, (1R,2R)-2-[3-{[2,6-Dimethyl-4-(2-phenylethoxy)benzoyl]amino}-4-(trifluoromethyl)phenyl]-1-methylcyclopropanecarboxylic acid] belongs 27 nM; to `CC(C)c1cc(OCc2ccccc2)ccc1C(=O)Nc1cc([C@H]2C[C@H]2C(=O)O)ccc1C(F)(F)F` [Example 28, (1R,2S)-2-[3-{[4-(Benzyloxy)-2-isopropylbenzoyl]amino}-4-(trifluoromethyl)phenyl]cyclopropanecarboxylic acid], 4 nM.
Same read-out and setting: in the case of `CC(C)c1c(OCc2ccccc2)cccc1C(=O)Nc1cc([C@H]2C[C@H]2C(=O)O)ccc1C(F)(F)F` [Example 29-1, (1R,2S)-2-[3-{[3-(Benzyloxy)-2-isopropylbenzoyl]amino}-4-(trifluoromethyl)phenyl]cyclopropanecarboxylic acid] it was 11 nM.
Still for that read-out and setting: to `CC(C)c1nn(CCCc2ccccc2)cc1C(=O)Nc1cc([C@H]2C[C@H]2C(=O)O)ccc1C(F)(F)F` [Example 31-1, (1R,2S)-2-[3-({[3-Isopropyl-1-(3-phenylpropyl)-1H-pyrazol-4-yl]carbonyl}amino)-4-(trifluoromethyl)phenyl]cyclopropanecarboxylic acid] belongs 8.9 nM; to `CC(C)c1c(C(=O)Nc2cc([C@H]3C[C@H]3C(=O)O)ccc2C(F)(F)F)cnn1CCCc1ccccc1` [Example 31-2, (1R,2S)-2-[3-({[5-Isopropyl-1-(3-phenylpropyl)-1H-pyrazol-4-yl]carbonyl}amino)-4-(trifluoromethyl)phenyl]cyclopropanecarboxylic acid], 1.3 nM; to `Cc1cc(OCCc2ccccc2)cc(C)c1C(=S)Nc1cc([C@H]2C[C@H]2C(=O)O)ccc1C(F)(F)F` [Example 32, (1R,2S)-2-[3-({[2,6-Dimethyl-4-(2-phenylethoxy)phenyl]carbonothioyl}amino)-4-(trifluoromethyl)phenyl]cyclopropanecarboxylic acid], 13 nM.
Turning to `CCC(C)c1c(C(=O)Nc2cc([C@H]3C[C@H]3C(=O)O)ccc2C(F)(F)F)ccn1CCCc1ccccc1` (stereo partly drawn) [Example 34, (1R,2S)-2-[3-({[2-sec-Butyl-1-(3-phenylpropyl)-1H-pyrrol-3-yl]carbonyl}amino)-4-(trifluoromethyl)phenyl]cyclopropanecarboxylic acid], the IC50 was less than 0.3 nM.

For the next experiment, the system named is mouse colorectal cancer cell line CT26. Kind of experiment: Anti-tumor effect in allogenic transplantation model of mouse colorectal cancer cell line CT26. In kind it is in vivo. The following applies: female Balb/C mice, CT26 subcutaneous; 10 mg/kg per single dose, once on day-4, twice per day day-5 to day-25. The procedure: The anti-tumor effect of the compound of the present invention was evaluated in an allogenic transplantation model of CT26 that was a mouse colorectal cancer cell line. CT26 was cultured in a RPMI-1640 medium supplemented with 10 vol % of heat-inactivated fetal bovine serum (FBS), 100 units/mL of penicillin and 100 μg/mL of streptomycin in a CO2 incubator. On the day of transplantation, a culture supernatant was removed, CT26 was washed with a phosphate buffered saline (also abbreviated as “PBS”, hereinafter) and was then collected. The collected CT26 was suspended in PBS and was used as cells for transplantation. 300,000 cells for the transplantation were transplanted subcutaneously into female Balb/C mice (Charles River Laboratories Japan) on the right back. Four days after the transplantation, the mice were divided into two groups, i.e., a medium group and a compound A group, each including 10 cases. […] With respect to a tumor volume (mm^3), a shorter diameter and a longer diameter of a tumor were measured with an electronic caliper, and the tumor volume was calculated in accordance with mathematical formula 1 shown below. […]
As to `Cc1cc(OCCc2ccccc2)cc(C)c1C(=O)Nc1cc([C@H]2C[C@H]2C(=O)O)ccc1C(F)(F)F` [Example 18, (1R,2S)-2-[3-{[2,6-Dimethyl-4-(2-phenylethoxy)benzoyl]amino}-4-(trifluoromethyl)phenyl]cyclopropanecarboxylic acid], the “tumor volumes on day-25 of the transplantation compared with medium-administered group” value is given as “significantly smaller”.
